Experimental data as given in patent publication US20220409608A1, “DIMERIC NAPHTHALIMIDE FORMULATIONS” (ALUCENT BIOMEDICAL, INC., priority 2019, published 2022).

Key:
Assay type in all cases: physicochemical
[1] = Combination of exemplary composition and radiographic contrast agent, UPLC; conditions: for Increase in the amount of impurities of Compound of Formula (I), HPLC chromatograms: initial and 24-hour timepoints
Procedure: (§1) The purity of a composition was analyzed by UPLC on a 2.1×100 mm C18 column with 1.7 μm packing. The analytical method was a 7 minute gradient at 30° C. and a flowrate of 0.61 mL/min consisting of acetonitrile, water, and trifluoracetic acid. Absorption was measured at 210 nm and 440 nm.
Equal volumes of a formulation from Example 1 and radiographic contrast agent (Omnipaque or Isovue), as received from the manufacturer, were drawn into separate syringes. The two syringes were connected to an indeflator by a three-way joint/stopcock. The indeflator was evacuated and the mixtures from both syringes were transferred into the indeflator. The indeflator was then inverted six times to ensure complete mixing of the mixtures. The resulting mixture was a yellow/orange translucent mixture, stored in an amber scintillation vial at room temperature, and analyzed by UPLC upon storage and after 24 hours.

[2] = Combination of exemplary composition and paclitaxel injection solution, UPLC; conditions: for Compound of Formula (I) (HPLC area-%) / Total impurities (HPLC area-%): equal volumes of formulation and paclitaxel injection solution (6 mg/mL); for Compound of Formula (I) (HPLC area-%) / Total impurities (HPLC area-%) / Stability after being combined in the same composition: room temperature; for Stability after being combined in the same composition: seven hours after combining Compound of Formula (I) formulation and paclitaxel
Procedure: as §1
Equal volumes of a formulation from Example 1 and paclitaxel injection solution (6 mg/mL; used as received from manufacturer) were combined in an amber scintillation vial and stored at room temperature. The resulting mixture was a clear yellow solution. An aliquot was obtained, diluted 1:10 with 0.1% aqueous TFA and analyzed by UPLC as described herein. Another aliquot was obtained, 7 hours after preparation of the mixture, and similarly diluted and analyzed.

[3] = Stability of formulations at 40° C. at various pH values (impurities by UPLC)
Procedure: as §1
To determine the stability of the formulations described herein, the amount of impurities was measured. A formulation was added to a 10 mL amber vial and stored at 40° C. in a constant temperature chamber. At the desired time point(s), the formulation was analyzed by UPLC and the pH was measured. No change in physical appearance was observed.

[4] = equal volumes of formulation and Isovue, room temperature, t = 0 hours
[5] = equal volumes of formulation and Isovue, room temperature, t = 24 hours
[6] = equal volumes of formulation and Omnipaque, room temperature, t = 0 hours
[7] = equal volumes of formulation and Omnipaque, room temperature, t = 24 hours

Question: Which “Stability when combined with a radiographic contrast agent” value ([1]; after 24 hours, room temperature) does the source give for `NCCOCCOCCNc1ccc2c3c(cccc13)C(=O)N(CCOCCOCCN1C(=O)c3cccc4c(NCCOCCOCCN)ccc(c34)C1=O)C2=O` [Compound of Formula (I), 2,2′-((ethane-1,2-diylbis(oxy))bis(ethane-2,1-diyl))bis(6-((2-(2-(2-aminoethoxy)ethoxy)ethyl)amino)-1H-benzo[de]isoquinoline-1,3(2H)-dione)] here?
Answer: The value was “stable”.

Question: And the “Compound of Formula (I) (HPLC area-%)” value [1, 4]?
Answer: Its value is 98.98 HPLC area-%.

Question: And the “Total impurities (HPLC area-%)” value [1, 4]?
Answer: Its value is 1.02 HPLC area-%.

Question: And the “Compound of Formula (I) (HPLC area-%)” value [1, 5]?
Answer: The value was 98.97 HPLC area-%.

Question: What about the “Total impurities (HPLC area-%)” value [1, 5] of the same molecule?
Answer: The value was 1.03 HPLC area-%.

Question: What about the “Compound of Formula (I) (HPLC area-%)” value [1, 6] of the same molecule?
Answer: The value was 98.98 HPLC area-%.

Question: What about the “Total impurities (HPLC area-%)” value [1, 6] of the same molecule?
Answer: The value was 1.02 HPLC area-%.

Question: What about the “Compound of Formula (I) (HPLC area-%)” value [1, 7] of the same molecule?
Answer: Its value is 98.95 HPLC area-%.

Question: What about the “Total impurities (HPLC area-%)” value [1, 7] of the same molecule?
Answer: Its value is 1.05 HPLC area-%.

Question: What about the “Increase in the amount of impurities of Compound of Formula (I), HPLC chromatograms” value (from here on “Increase in the amount … (I), HPLC chromatograms”) ([1]; mixture with Isovue, FIG. 5) of the same molecule?
Answer: Its value is “no increase”.

Question: And the “Increase in the amount … (I), HPLC chromatograms” value ([1]; mixture with Omnipaque, FIG. 6)?
Answer: Its value is “no increase”.

Question: And the “Compound of Formula (I) (HPLC area-%)” value ([2]; 0 hours)?
Answer: The value was 98.9 HPLC area-%.

Question: And the “Total impurities (HPLC area-%)” value ([2]; 0 hours)?
Answer: The value was 1.1 HPLC area-%.

Question: What about the “Compound of Formula (I) (HPLC area-%)” value ([2]; 1 hour) of the same molecule?
Answer: The value was 98.9 HPLC area-%.

Question: What about the “Total impurities (HPLC area-%)” value ([2]; 1 hour) of the same molecule?
Answer: The value was 1.1 HPLC area-%.

Question: What about the “Compound of Formula (I) (HPLC area-%)” value ([2]; 4 hours) of the same molecule?
Answer: The value was 98.9 HPLC area-%.

Question: What about the “Total impurities (HPLC area-%)” value ([2]; 4 hours) of the same molecule?
Answer: Its value is 1.1 HPLC area-%.

Question: What about the “Compound of Formula (I) (HPLC area-%)” value ([2]; 7 hours) of the same molecule?
Answer: Its value is 98.9 HPLC area-%.

Question: What about the “Total impurities (HPLC area-%)” value ([2]; 7 hours) of the same molecule?
Answer: The value was 1.1 HPLC area-%.

Question: What about the “Increase in the amount … (I), HPLC chromatograms” value ([2]; mixture with paclitaxel, 1- and 7-hour time points, FIG. 7) of the same molecule?
Answer: Its value is “no increase”.

Question: And the “Stability after being combined in the same composition” value [2]?
Answer: The value was “stable”.

Question: What about the “Increase in impurity concentration” value ([3]; composition at a pH ranging from 5 to 7) of the same molecule?
Answer: Its value is “minimal”.

Question: What about the Degradation in compositions ([3]; compositions having a pH of less than 5 or greater than 7) of the same molecule?
Answer: Its Degradation in compositions is “degrade appreciably”.

Question: What does the source list for `CC(=O)O[C@H]1C(=O)[C@@]2(C)[C@H]([C@H](OC(=O)c3ccccc3)[C@]3(O)C[C@H](OC(=O)[C@H](O)[C@@H](NC(=O)c4ccccc4)c4ccccc4)C(C)=C1C3(C)C)[C@]1(OC(C)=O)CO[C@@H]1C[C@@H]2O` [paclitaxel, reference compound]?
Answer: Increase in the amount of impurities of paclitaxel, HPLC chromatograms ([2]; mixture of Compound of Formula (I) and paclitaxel, 1- and 7-hour time points, FIG. 8): no increase; Stability after being combined in the same composition [2]: stable
